{"source": "paper PMC7394005", "about": "“Assessing the Selectivity of FXR, LXRs, CAR, and RORγ Pharmaceutical Ligands With Reporter Cell Lines” (Frontiers in Pharmacology, 2020)", "format_in_all_cases": "cell-based", "key": {"[1]": {"target": "T1, human LXRα (Homo sapiens, UniProt Q13133)", "T1 construct": "LXRα (A187-E447); expressed in transfected cells; host or cells: HG5LN (HeLa cells carrying the (GAL4RE)5-βGlob-Luc-SVNeo reporter)", "T1 sequence (Q13133 187-447)": "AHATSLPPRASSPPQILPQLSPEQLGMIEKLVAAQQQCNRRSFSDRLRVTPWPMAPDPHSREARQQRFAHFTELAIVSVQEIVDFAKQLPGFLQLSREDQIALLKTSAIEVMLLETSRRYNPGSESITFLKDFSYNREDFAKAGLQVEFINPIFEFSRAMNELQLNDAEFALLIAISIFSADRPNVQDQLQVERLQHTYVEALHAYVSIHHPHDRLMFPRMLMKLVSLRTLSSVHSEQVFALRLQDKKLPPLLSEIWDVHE", "assay": "HG5LN GAL4-LXRα reporter cell line, antagonist mode in presence of T0901317", "conditions": "read-out: LXRα (T0901317 20 nM) IC50; in presence of T0901317 20 nM; NE = No effect", "description": "(§1) To construct GAL4-NR chimeras, individual LBDs of human FXR (R193-Q486), LXRα (A187-E447), LXRβ (G199-E461), CAR (M76-S348), and RORγ (S97-K518) were amplified by PCR with primers containing XhoI and SacI restriction sites (FXR), XhoI and BamHI (LXRs, CAR, RORγ) and inserted in pSG5-GAL4(DBD)-puromycin plasmid. To construct GAL4-CAR (+ APYLT) (M76-S353), the five amino acids APYLT were inserted by overlap extension PCR between amino acids P270 and D271 of CAR.\n(§2) To characterize the specificity of chemicals for human FXR, LXRα, LXRβ, CAR and RORγ, we established in a similar manner HG5LN FXR, LXRα, LXRβ, CAR WT, CAR (APYLT) and RORγ reporter cell lines. […] These cells were stably transfected by pSG5-GAL4 (DBD)-NRs (LBD)-puromycin plasmid and selected in presence of 0.5 µg/ml puromycin. […] From each HG5LN NR cells, 5 to 10 clones were chosen for their ligand inducibility of luciferase expression. […] The most inducible clones were expanded and rechecked for inducibility and aliquots were frozen at different passages. One clone per receptor was maintained in culture and used for ligand screening. HG5LN cells were cultured in Dulbecco’s modified Eagle’s medium (DMEM): Nutrient Mixture F-12 (DMEM/F-12) containing phenol red and 1 g/l glucose and supplemented with 5% fetal bovine serum, 100 units/ml of penicillin, 100 µg/ml of streptomycin and 1 mg/ml geneticin, in 5% CO2 humidified atmosphere at 37°C. Stably transfected cell lines derived from HG5LN cells were cultured in the same culture medium supplemented with 0.5 µg/ml puromycin.\n(§3) Individual reporter cell lines were seeded at a density of 40,000 cells per well in 96-well white opaque tissue culture plates (Greiner CellStar) in Dulbecco’s Modified Eagle Medium: Nutrient Mixture F-12 (DMEM/F-12) without phenol red and 1 g/l glucose and supplemented with 5% stripped fetal bovine serum, 100 units/ml of penicillin, 100 µg/ml of streptomycin (test medium). Chemicals to be tested were added 24h later, and cells were incubated at 37°C for 16h. Experiments were performed in quadruplicates. At the end of the incubation period, culture medium was replaced with test medium containing 0.3 mM luciferin solution. Luciferase activity was measured for 2s in intact living cells after 10 min stabilization using a Micro Beta Wallac luminometer (PerkinElmer). EC50 values were calculated using GraphPad Prism (GraphPad Software Inc).\n(§4) Chemicals tested for agonism on FXR, LXRs, CAR (+ APYLT), PXR, and antagonism on CAR and RORγ were tested alone, without addition of any other ligand.\n(§5) In the transactivation assay, each compound was tested at various concentrations in three independent experiments at least. For each experiment, tests were performed in quadruplicates for each concentration, and data are expressed by means values with standard deviations. Individual agonist dose–response curves, in the absence and presence of antagonist, were fitted using the sigmoid dose-response function of a graphics and statistics software program (GraphPad Prism, version 5.0). EC50 (effective concentration for half-maximal luciferase activity) and IC50 (half-maximal inhibitory concentration) values were calculated from equations used to fit the data in this graphic software. Transactivation data are presented as EC50 and IC50 values for each compound tested. To analyze significances, we compared individual compound treatments with controls using one-way analysis of variance (ANOVA) with the help of GraphPad Prism software."}, "[2]": {"target": "T1, human LXRα", "assay": "HG5LN GAL4-LXRα reporter cell line, agonist mode", "conditions": "HG5LN GAL4-LXRα cells, tested alone; NE = No effect; read-out: LXRα EC50", "description": "as §1, §2, §3, §4, §5"}, "[3]": {"target": "T2, human RORγ (Homo sapiens, UniProt P51449)", "T2 construct": "RORγ (S97-K518); expressed in transfected cells; host or cells: HG5LN (HeLa cells carrying the (GAL4RE)5-βGlob-Luc-SVNeo reporter)", "T2 sequence (P51449 97-518)": "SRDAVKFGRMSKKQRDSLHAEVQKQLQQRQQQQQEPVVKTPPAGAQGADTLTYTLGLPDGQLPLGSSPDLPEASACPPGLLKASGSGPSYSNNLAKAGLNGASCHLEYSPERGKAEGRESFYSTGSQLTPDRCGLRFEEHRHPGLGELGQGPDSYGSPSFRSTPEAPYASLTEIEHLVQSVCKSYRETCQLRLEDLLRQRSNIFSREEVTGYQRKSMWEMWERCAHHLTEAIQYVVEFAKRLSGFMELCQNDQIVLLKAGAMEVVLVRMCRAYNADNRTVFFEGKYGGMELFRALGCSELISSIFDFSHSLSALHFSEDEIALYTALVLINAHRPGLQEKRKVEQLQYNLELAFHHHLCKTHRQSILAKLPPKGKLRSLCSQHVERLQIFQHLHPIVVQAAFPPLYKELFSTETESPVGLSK", "assay": "HG5LN GAL4-RORγ reporter cell line, agonist mode in presence of SR2211", "conditions": "read-out: RORγ (SR2211 1 mM) EC50; in presence of SR2211 1 mM; NE = No effect", "description": "as §1, §2, §3, §4, §5"}, "[4]": {"target": "T3, human LXRβ (Homo sapiens, UniProt P55055)", "T3 construct": "LXRβ (G199-E461); expressed in transfected cells; host or cells: HG5LN (HeLa cells carrying the (GAL4RE)5-βGlob-Luc-SVNeo reporter)", "T3 sequence (P55055 198-460 limits assumed)": "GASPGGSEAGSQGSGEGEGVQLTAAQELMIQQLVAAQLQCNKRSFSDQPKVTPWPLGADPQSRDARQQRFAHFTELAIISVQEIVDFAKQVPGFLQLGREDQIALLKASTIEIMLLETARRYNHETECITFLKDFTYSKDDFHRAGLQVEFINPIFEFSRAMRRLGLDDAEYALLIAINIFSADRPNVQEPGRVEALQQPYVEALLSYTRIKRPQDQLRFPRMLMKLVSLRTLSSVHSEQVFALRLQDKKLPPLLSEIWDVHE", "assay": "HG5LN GAL4-LXRβ reporter cell line, agonist mode", "conditions": "HG5LN GAL4-LXRβ cells, tested alone; NE = No effect; read-out: LXRβ EC50", "description": "as §1, §2, §3, §4, §5"}, "[5]": {"target": "T4, human PXR (Homo sapiens, UniProt O75469)", "T4 construct": "The GAL4-NR chimeric cell lines provide uniform cellular model differing just in receptor LBDs; expressed in transfected cells; host or cells: HG5LN PXR (HeLa-derived; described in Delfosse et al., 2015)", "T4 sequence (O75469 146-433 limits assumed)": "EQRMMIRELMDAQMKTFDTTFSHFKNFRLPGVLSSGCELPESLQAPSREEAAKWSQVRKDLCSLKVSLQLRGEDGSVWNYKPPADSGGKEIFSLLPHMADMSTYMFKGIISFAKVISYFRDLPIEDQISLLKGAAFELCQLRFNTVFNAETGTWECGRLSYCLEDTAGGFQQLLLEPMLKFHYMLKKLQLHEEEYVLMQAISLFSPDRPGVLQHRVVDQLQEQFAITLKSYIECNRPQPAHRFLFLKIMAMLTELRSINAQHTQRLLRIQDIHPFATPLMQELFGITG", "assay": "HG5LN PXR reporter cell line, agonist mode", "conditions": "NE = No effect", "procedure": "as §2, §3, §4, §5"}, "[6]": {"target": "T3, human LXRβ", "assay": "HG5LN GAL4-LXRβ reporter cell line, antagonist mode in presence of T0901317", "conditions": "read-out: LXRβ (T0901317 100 nM) IC50; in presence of T0901317 100 nM; NE = No effect", "description": "as §1, §2, §3, §4, §5"}, "[7]": {"target": "T2, human RORγ", "assay": "HG5LN GAL4-RORγ reporter cell line, inhibition of constitutive activity", "conditions": "inhibition of constitutive activity, tested alone; NE = No effect", "description": "as §1, §2, §3, §4, §5"}}, "data": [{"smiles": "CCC(C)N(C)C(=O)c1cc2ccccc2c(-c2ccccc2Cl)n1", "note": "(centres unmarked) [PK11195]", "values": [{"measurement": "IC50", "setting": "[1]", "value": "> 10", "unit": "µM"}, {"measurement": "EC50", "setting": "[2]", "value": "> 10", "unit": "µM"}, {"measurement": "EC50", "setting": "[3]", "value": "> 10", "unit": "µM"}, {"measurement": "EC50", "setting": "[4]", "value": "> 10", "unit": "µM"}, {"measurement": "EC50", "setting": "[5]; HG5LN PXR cells, tested alone, read-out: PXR EC50", "value": "0.726 ± 0.056", "unit": "µM"}, {"measurement": "PXR % max act", "setting": "[5]; maximal luciferase activity at 10^-5 M (10^-6 M *, 3 10^-6 M **), 100% = 3 µM SR12813, DMSO 19 ± 2", "value": 80, "unit": "%"}, {"measurement": "IC50", "setting": "[6]", "value": "> 10", "unit": "µM"}, {"measurement": "IC50", "setting": "[7]", "value": "> 10", "unit": "µM"}]}]}
